According to patent publication US9951063B2, “8-(piperazin-1-yl)-1,2,3,4-tetrahydro-isoquinoline derivatives” (IDORSIA PHARMACEUTICALS LTD, priority 2014, dated 2018):

The molecules below were run against human CXCR3A (Homo sapiens (Human), UniProt P49682) (assay: FLIPR assay (inhibition of CXCL10-induced calcium signal)). Conditions: engineered CHO-K1 cells expressing human CXCR3A coupled to Galpha(16); Fluo-4-AM; CXCL10 agonist 20 nM; mean values where determined several times.
Type: cell-based
Experimental: The bioactivity of compounds is tested in a fluorometric imaging plate reader (FLIPR: Molecular Devices) using engineered CHO-K1 cells expressing the human CXCR3A (GenBank: AY242128) coupled to a G protein (Galpha(16)). Cells are plated the day prior to bioassay in F12 medium supplemented with 10% FBS and G418 and hygromycin antibiotics to maintain recombinant selection. At the day of bioassay, cells are washed and dye loaded for one hour with Fluo-4-AM (Invitrogen) in Hanks Balanced Salt Solution (Invitrogen), buffered with 20 mM Hepes at pH 7.4 and sodium bicarbonate (0.038%), containing 5 mM probenecid. This buffer, but lacking the dye and containing probenecid at a concentration of 2.5 mM, is also used for washing steps (wash buffer); or lacking both dye and probenecid but supplemented with 0.1% BSA for compound dilution steps (dilution buffer). Cells are washed free of excess dye and 60 microliter of wash buffer is added. Stock solutions of test compounds are made up at a concentration of 10 mM in DMSO, and serially diluted in dilution buffer to concentrations required for inhibition dose response curves. After a 10 minute incubation period at 37° C., 10 microliters of each compound dilution are transferred from a compound plate to the plate containing the recombinant cells in the FLIPR instrument according to the manufacturer's instructions. Following basal readings, 10 microliter CXCL10 agonist at a concentration of 20 nM (from Peprotech) is added, again using the FLIPR instrument. Changes in fluorescence are monitored before and after addition of the test compounds. Emission peak values above base level after CXCL10 addition are exported after base line subtraction.
The calculated IC50 values may fluctuate depending on the daily assay performance. Fluctuations of this kind are known to those skilled in the art. In the case where IC50 values have been determined several times for the same compound, mean values are given.

Sequence of human CXCR3A (P49682 whole entry): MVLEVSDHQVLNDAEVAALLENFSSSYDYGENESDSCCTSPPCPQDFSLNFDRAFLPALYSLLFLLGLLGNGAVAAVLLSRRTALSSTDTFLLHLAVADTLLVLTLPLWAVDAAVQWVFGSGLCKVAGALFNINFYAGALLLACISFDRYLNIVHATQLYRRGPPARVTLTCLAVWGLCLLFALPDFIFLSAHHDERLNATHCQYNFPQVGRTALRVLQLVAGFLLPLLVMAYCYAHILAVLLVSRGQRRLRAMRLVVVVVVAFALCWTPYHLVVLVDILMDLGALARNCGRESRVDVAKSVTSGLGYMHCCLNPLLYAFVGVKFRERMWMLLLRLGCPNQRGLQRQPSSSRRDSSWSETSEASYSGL

| Compound | IC50 [nM] |
| --- | --- |
| COc1ncc(N2CCc3c(C(F)(F)F)ccc(N4CCN(C(=O)Cn5nc(C)cc5C)[C@H](C)C4)c3C2)cn1 [Example 24, 2-(3,5-Dimethyl-pyrazol-1-yl)-1-{(R)-4-[2-(2-methoxy-pyrimidin-5-yl)-5-trifluoromethyl-1,2,3,4-tetrahydro-isoquinolin-8-yl]-2-methyl-piperazin-1-yl}-ethanone] | 3.7 |
| COc1ncc(N2CCc3c(C(F)(F)F)ccc(N4CCN(C(=O)Cn5cccn5)[C@H](C)C4)c3C2)cn1 [Example 25, 1-{(R)-4-[2-(2-Methoxy-pyrimidin-5-yl)-5-trifluoromethyl-1,2,3,4-tetrahydro-isoquinolin-8-yl]-2-methyl-piperazin-1-yl}-2-pyrazol-1-yl-ethanone] | 24 |
| COc1ncc(N2CCc3c(C(F)(F)F)ccc(N4CCN(C(=O)Cn5nccn5)[C@H](C)C4)c3C2)cn1 [Example 26, 1-{(R)-4-[2-(2-Methoxy-pyrimidin-5-yl)-5-trifluoromethyl-1,2,3,4-tetrahydro-isoquinolin-8-yl]-2-methyl-piperazin-1-yl}-2-[1,2,3]triazol-2-yl-ethanone] | 98.5 |
| COc1ncc(N2CCc3c(C(F)(F)F)ccc(N4CCN(C(=O)CCn5cccn5)[C@H](C)C4)c3C2)cn1 [Example 27, 1-{(R)-4-[2-(2-Methoxy-pyrimidin-5-yl)-5-trifluoromethyl-1,2,3,4-tetrahydro-isoquinolin-8-yl]-2-methyl-piperazin-1-yl}-3-pyrazol-1-yl-propan-1-one] | 908 |
| CCOc1ncc(N2CCc3c(C(F)(F)F)ccc(N4CCN(C(=O)Cn5cnc6cccnc65)CC4)c3C2)cn1 [Example 28, 1-{4-[2-(2-Ethoxy-pyrimidin-5-yl)-5-trifluoromethyl-1,2,3,4-tetrahydro-isoquinolin-8-yl]-piperazin-1-yl}-2-imidazo[4,5-b]pyridin-3-yl-ethanone] | 2.4 |
| CCOc1ncc(N2CCc3c(C(F)(F)F)ccc(N4CCN(C(=O)Cn5nc(C)cc5C)CC4)c3C2)cn1 [Example 29, 2-(3,5-Dimethyl-pyrazol-1-yl)-1-{4-[2-(2-ethoxy-pyrimidin-5-yl)-5-trifluoromethyl-1,2,3,4-tetrahydro-isoquinolin-8-yl]-piperazin-1-yl}-ethanone] | 30.5 |
| CCOc1ncc(N2CCc3c(C(F)(F)F)ccc(N4CCN(C(=O)Cn5nc(C)nc5C)CC4)c3C2)cn1 [Example 30, 2-(3,5-Dimethyl-[1,2,4]triazol-1-yl)-1-{4-[2-(2-ethoxy-pyrimidin-5-yl)-5-trifluoromethyl-1,2,3,4-tetrahydro-isoquinolin-8-yl]-piperazin-1-yl}-ethanone] | 13.8 |
| CCOc1ncc(N2CCc3c(C(F)(F)F)ccc(N4CCN(C(=O)Cn5ncc6cccnc65)CC4)c3C2)cn1 [Example 31, 1-{4-[2-(2-Ethoxy-pyrimidin-5-yl)-5-trifluoromethyl-1,2,3,4-tetrahydro-isoquinolin-8-yl]-piperazin-1-yl}-2-pyrazolo[3,4-b]pyridin-1-yl-ethanone] | 11.5 |
| CCOc1ncc(N2CCc3c(C(F)(F)F)ccc(N4CCN(C(=O)Cn5cc6cccnc6n5)CC4)c3C2)cn1 [Example 32, 1-{4-[2-(2-Ethoxy-pyrimidin-5-yl)-5-trifluoromethyl-1,2,3,4-tetrahydro-isoquinolin-8-yl]-piperazin-1-yl}-2-pyrazolo[3,4-b]pyridin-2-yl-ethanone] | 9.83 |
| CCOc1ncc(N2CCc3c(C(F)(F)F)ccc(N4CCN(C(=O)CN5C(=O)Cc6ccccc65)CC4)c3C2)cn1 [Example 33, 1-(2-{4-[2-(2-Ethoxy-pyrimidin-5-yl)-5-trifluoromethyl-1,2,3,4-tetrahydro-isoquinolin-8-yl]-piperazin-1-yl}-2-oxo-ethyl)-1,3-dihydro-indol-2-one] | 10.9 |
| CCOc1ncc(N2CCc3c(C(F)(F)F)ccc(N4CCN(C(=O)Cn5cnc6cccnc65)[C@@H](C)C4)c3C2)cn1 [Example 34, 1-{(S)-4-[2-(2-Ethoxy-pyrimidin-5-yl)-5-trifluoromethyl-1,2,3,4-tetrahydro-isoquinolin-8-yl]-2-methyl-piperazin-1-yl}-2-imidazo[4,5-b]pyridin-3-yl-ethanone] | 16.7 |
| CCOc1ncc(N2CCc3c(C(F)(F)F)ccc(N4CCN(C(=O)Cn5nc(C)cc5C)[C@@H](C)C4)c3C2)cn1 [Example 35, 2-(3,5-Dimethyl-pyrazol-1-yl)-1-{(S)-4-[2-(2-ethoxy-pyrimidin-5-yl)-5-trifluoromethyl-1,2,3,4-tetrahydro-isoquinolin-8-yl]-2-methyl-piperazin-1-yl}-ethanone] | 30.8 |
| CCOc1ncc(N2CCc3c(C(F)(F)F)ccc(N4CCN(C(=O)Cn5ccc(C)n5)[C@@H](C)C4)c3C2)cn1 [Example 36, 1-{(S)-4-[2-(2-Ethoxy-pyrimidin-5-yl)-5-trifluoromethyl-1,2,3,4-tetrahydro-isoquinolin-8-yl]-2-methyl-piperazin-1-yl}-2-(3-methyl-pyrazol-1-yl)-ethanone] | 6.27 |
| CCOc1ncc(N2CCc3c(C(F)(F)F)ccc(N4CCN(C(=O)CN5CCc6cccnc65)[C@@H](C)C4)c3C2)cn1 [Example 37, 2-(2,3-Dihydro-pyrrolo[2,3-b]pyridin-1-yl)-1-{(S)-4-[2-(2-ethoxy-pyrimidin-5-yl)-5-trifluoromethyl-1,2,3,4-tetrahydro-isoquinolin-8-yl]-2-methyl-piperazin-1-yl}-ethanone] | 30.9 |
| Cc1nc(C)n(CC(=O)N2CCN(c3ccc(C(F)(F)F)c4c3CN(c3nc5ccc(F)cc5s3)CC4)C[C@H]2C)n1 [Example 38, 2-(3,5-Dimethyl-[1,2,4]triazol-1-yl)-1-{(R)-4-[2-(6-fluoro-benzothiazol-2-yl)-5-trifluoromethyl-1,2,3,4-tetrahydro-isoquinolin-8-yl]-2-methyl-piperazin-1-yl}-ethanone] | 15.8 |
| C[C@@H]1CN(c2ccc(C(F)(F)F)c3c2CN(c2nc4ccc(F)cc4s2)CC3)CCN1C(=O)Cn1ncc2cccnc21 [Example 39, 1-{(R)-4-[2-(6-Fluoro-benzothiazol-2-yl)-5-trifluoromethyl-1,2,3,4-tetrahydro-isoquinolin-8-yl]-2-methyl-piperazin-1-yl}-2-pyrazolo[3,4-b]pyridin-1-yl-ethanone] | 73.5 |
| Cc1ccn(CC(=O)N2CCN(c3ccc(C(F)(F)F)c4c3CN(c3nc5ccc(F)cc5s3)CC4)C[C@H]2C)n1 [Example 40, 1-{(R)-4-[2-(6-Fluoro-benzothiazol-2-yl)-5-trifluoromethyl-1,2,3,4-tetrahydro-isoquinolin-8-yl]-2-methyl-piperazin-1-yl}-2-(3-methyl-pyrazol-1-yl)-ethanone] | 49 |
| Cc1ccnn1CC(=O)N1CCN(c2ccc(C(F)(F)F)c3c2CN(c2nc4ccc(F)cc4s2)CC3)C[C@H]1C [Example 41, 1-{(R)-4-[2-(6-Fluoro-benzothiazol-2-yl)-5-trifluoromethyl-1,2,3,4-tetrahydro-isoquinolin-8-yl]-2-methyl-piperazin-1-yl}-2-(5-methyl-pyrazol-1-yl)-ethanone] | 51.4 |
| Cc1nc(C)n(CC(=O)N2CCN(c3ccc(C(F)(F)F)c4c3CN(c3nc(C(F)(F)F)cs3)CC4)C[C@H]2C)n1 [Example 42, 2-(3,5-Dimethyl-[1,2,4]triazol-1-yl)-1-{(R)-2-methyl-4-[5-trifluoromethyl-2-(4-trifluoromethyl-thiazol-2-yl)-1,2,3,4-tetrahydro-isoquinolin-8-yl]-piperazin-1-yl}-ethanone] | 8.29 |
| C[C@@H]1CN(c2ccc(C(F)(F)F)c3c2CN(c2nc(C(F)(F)F)cs2)CC3)CCN1C(=O)Cn1ncc2cccnc21 [Example 43, 1-{(R)-2-Methyl-4-[5-trifluoromethyl-2-(4-trifluoromethyl-thiazol-2-yl)-1,2,3,4-tetrahydro-isoquinolin-8-yl]-piperazin-1-yl}-2-pyrazolo[3,4-b]pyridin-1-yl-ethanone] | 38.6 |
| Cc1ccn(CC(=O)N2CCN(c3ccc(C(F)(F)F)c4c3CN(c3nc(C(F)(F)F)cs3)CC4)C[C@H]2C)n1 [Example 44, 2-(3-Methyl-pyrazol-1-yl)-1-{(R)-2-methyl-4-[5-trifluoromethyl-2-(4-trifluoromethyl-thiazol-2-yl)-1,2,3,4-tetrahydro-isoquinolin-8-yl]-piperazin-1-yl}-ethanone] | 12 |
| Cc1ccnn1CC(=O)N1CCN(c2ccc(C(F)(F)F)c3c2CN(c2nc(C(F)(F)F)cs2)CC3)C[C@H]1C [Example 45, 2-(5-Methyl-pyrazol-1-yl)-1-{(R)-2-methyl-4-[5-trifluoromethyl-2-(4-trifluoromethyl-thiazol-2-yl)-1,2,3,4-tetrahydro-isoquinolin-8-yl]-piperazin-1-yl}-ethanone] | 12.7 |
| Cc1nc(C)n(CC(=O)N2CCN(c3ccc(C(F)(F)F)c4c3CN(c3cnc(C5CC5)nc3)CC4)C[C@H]2C)n1 [Example 46, 1-{(R)-4-[2-(2-Cyclopropyl-pyrimidin-5-yl)-5-trifluoromethyl-1,2,3,4-tetrahydro-isoquinolin-8-yl]-2-methyl-piperazin-1-yl}-2-(3,5-dimethyl-[1,2,4]triazol-1-yl)-ethanone] | 4.37 |
